Earlier results on one compound are cited in patent US20220142981A1, “APREMILAST LIPOPHILIC TOPICAL PHARMACEUTICAL COMPOSITIONS” (APRAMITHA INNOVATIONS PRIVATE LIMITED, priority 2019, published 2022).

For the compound `CCOc1cc([C@@H](CS(C)(=O)=O)N2C(=O)c3cccc(NC(C)=O)c3C2=O)ccc1OC` [Apremilast, N-[2-[(lS)-l-(3-ethoxy-4-methoxyphenyl)-2-(methylsulfonyl)ethyl]-l,3-dioxo-2,3-dihydro-lH-isoindol-4-yl]acetamide], the “solubility in polar solvents” value (polar solvents) is reported as “minimal solubility”. Further, the solubility in water entry (water) is given as “insolubility”.
